We go through 2 substances from patent US10808008B2, “Aromatic-cationic peptides and uses of same” (Cornell University, priority 2012, dated 2020).

The target in test [1] is T1, cytochrome c (Equus caballus, UniProt P00004). The test is described as follows: Fluorescence quenching of labelled peptides by cytochrome c. In kind it is binding, horse. On the set-up: from tissue; host or cells: horse heart. The conditions noted are these: additions of 75 μg/ml BSA.
In test [2] the target is T1, cytochrome c. The experiment in a line: Cytochrome c reduction kinetics (absorption spectroscopy). In kind it is biochemical. How it is done:
Increasing amounts of aromatic-cationic peptides were added to a solution of oxidized cytochrome c. The formation of reduced cytochrome c was monitored by absorbance at […]. The rate of cytochrome c reduction was determined by non-linear analysis (Prizm software).
Time-resolved UV-Visible absorption spectroscopy was used to study the electron transport process of cytochrome c in the presence of peptides. Reduced cytochrome c was monitored by absorbance at a broad-band spectral range (200-1100 nm). The absorption changes were recorded with a UV/Visible spectrophotometer (Ultrospec 3300 pro, GE) in quartz cells with path lengths of 1 or 2 mm. N-acetylcysteine (NAC) and glutathione were used as electron donors to reduce oxidized cytochrome c. The rate constant of cytochrome c reduction was estimated by adding various concentrations of peptides. The dose dependence of the peptides was correlated to the cytochrome c reduction kinetics.
Absorption spectroscopy (UltroSpec 3300 Pro; 220-1100 nm) was used to determine if SS-31 modulates cytochrome c reduction (FIG. 1). Reduction of cytochrome c with glutathione is associated with multiple shifts in the Q band (450-650 nm), with a prominent shift at 550 nm. […] Accordingly, the aromatic-cationic peptides of the present disclosure are useful for altering the structure and oxidation state of cytochrome c, and are useful for the prevention or treatment of diseases or disorders characterized by dysregulation of cytochrome c.
Reduction of cytochrome c was monitored by increase in absorbance at 550 nm. […] Similar results were obtained using N-acetylcysteine (NAC) as a reducing agent (not shown). […] Accordingly, aromatic-cationic peptides of the present disclosure are useful for the prevention or treatment of diseases or disorders characterized by dysregulation of cytochrome c and are useful for facilitating cytochrome c reduction.

Test [3] concerns the target T1, cytochrome c. The experiment in a line: Cyclic voltammetry of cytochrome c. The class given is biochemical.
In test [4] the test system is isolated rat kidney mitochondria. The experiment in a line: O2 consumption in isolated mitochondria. The class given is biochemical. On the procedure: (§1) Fresh mitochondria were isolated from rat kidney as described previously. Electron flux was measured by O2 consumption (Oxygraph Clark electrode) as previously described using different substrates for C1 (glutamate/malate), C2 (succinate), and C3 (TMPD/ascorbate). Assays were carried out under low substrate conditions in order to avoid saturating the enzyme reactions. ATP production in isolated mitochondria was determined kinetically using the luciferase method (Biotherma) in a 96-well luminescence plate reader (Molecular Devices). The initial maximal rate for ATP synthesis was determined over the first minute.
Oxygen consumption of isolated rat kidney mitochondria was determined using the Oxygraph (FIG. 5). Rates of respiration were measured in the presence of different concentrations of SS-31 in state 2 (400 μM ADP only), state 3 (400 μM ADP and 500 μM substrates) and state 4 (substrates only). All experiments were done in triplicate with n=4−7. […] Accordingly, aromatic-cationic peptides of the present disclosure are useful for promoting electron transfer to oxygen without uncoupling mitochondria, increasing O2 consumption, and treating diseases or conditions related to dysregulation of O2 consumption in mitochondria.
(§2) SS-20 or SS-31 was added at 100 μM concentrations to isolated mitochondria in respiration buffer containing 0.5 mM succinate (complex II substrate) and 400 μM ADP. Similar increases in O2 consumption were observed when low concentrations of complex I substrates (glutamate/malate) were used (data not shown). […] Accordingly, targeting SS-20 and SS-31 to the IMM can facilitate electron flux in the electron transport chain and improve ATP synthesis, especially under conditions of reduced substrate supply.
SS-20 or SS-31 was added at 10 μM or 100 μM concentrations to isolated mitochondria in respiration buffer containing glutamate/malate (complex I substrate), 0.5 mM succinate (complex II substrate) or 3 μM TMPD/1 mM ascorbate (direct reductant of cytochrome c). 400 μM ADP was added to initiate State 3 respiration.

In the next test the test system is isolated mitochondria. The test is described as follows: ATP synthesis in isolated mitochondria. The class given is biochemical, rat. How it is done: as §1
The rate of mitochondrial ATP synthesis was determined by measuring ATP in respiration buffer collected from isolated mitochondria 1 min after addition of […] (FIG. 6). ATP was assayed by HPLC. All experiments were carried out in triplicate, with n=3. […] Accordingly, aromatic-cationic peptides of the present disclosure are useful for increasing ATP synthesis in mitochondria and for treating diseases or disorder characterized by dysregulation of ATP synthesis.
as §2
Increase in electron flux in the electron transport chain can either result in increase in ATP synthesis or increase in electron leak and generation of free radicals. ATP synthesis in isolated mitochondria was assayed by HPLC. […] Accordingly, aromatic-cationic peptides of the present disclosure are useful for increasing ATP synthesis in mitochondria and for treating diseases or disorder characterized by dysregulation of ATP synthesis.

Test [5] concerns the target T2, horse radish peroxidase (HRP) (Armoracia rusticana, UniProt P00433).
T2 sequence (P00433 31-338 limits assumed): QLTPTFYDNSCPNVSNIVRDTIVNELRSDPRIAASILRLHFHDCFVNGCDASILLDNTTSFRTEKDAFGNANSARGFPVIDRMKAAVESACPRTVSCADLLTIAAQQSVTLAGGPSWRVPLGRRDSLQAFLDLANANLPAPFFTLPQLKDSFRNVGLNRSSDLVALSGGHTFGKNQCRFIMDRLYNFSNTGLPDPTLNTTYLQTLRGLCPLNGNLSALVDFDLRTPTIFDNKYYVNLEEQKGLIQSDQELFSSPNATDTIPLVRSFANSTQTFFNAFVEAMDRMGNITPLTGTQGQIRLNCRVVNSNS
The experiment in a line: Horseradish peroxidase activity (Amplex Red). In kind it is biochemical. The following applies: data not shown.

“Also recorded” adds a separate entry of the source.

T1 sequence (P00004 2-105 limits assumed): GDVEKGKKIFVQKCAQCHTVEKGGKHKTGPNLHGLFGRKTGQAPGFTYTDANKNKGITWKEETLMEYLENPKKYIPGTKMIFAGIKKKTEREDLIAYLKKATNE

Take “2′,6′-Dmt-D-Arg-Phe-(atn)Dap-NH2 [SS-19]”: the “reversal of cytochrome c quenching by BSA” value at cytochrome c [1] is listed as “did not reverse quenching”.
As for D-Arg-2′,6′-Dmt-Lys-Phe-NH2 [SS-31], the “rate of NAC-induced cytochrome c reduction” value at cytochrome c [2] (N-acetylcysteine (NAC) as reducing agent) is given as “dose-dependently increased the rate of NAC-induced cytochrome c reduction”. Moreover, at cytochrome c [2] (glutathione (GSH) as reducing agent, absorbance at 550 nm), the “rate (kinetics) of cytochrome c reduction” value is on record as “increased the rate of cytochrome c reduction; also recorded: accelerate the kinetics of cytochrome c reduction”. For the same substance, the “reduction of cytochrome c by peptide alone” value at cytochrome c [2] (peptide alone at 100 μM) is recorded as “did not reduce cytochrome c”. At cytochrome c [2] (reduction of cytochrome c with glutathione), the “spectral weight shift in Q band of cytochrome c” value is listed as “significant spectral weight shift at 550 nm”. The “reduction/oxidation potentials of cytochrome c” value on cytochrome c [3] is given as “does not alter reduction/oxidation potentials”. Also, the “current of cytochrome c reduction and oxidation processes” value on cytochrome c [3] (Au working electrode, Ag/AgCl reference) is “increased current for both reduction and oxidation processes of cytochrome c”. In addition, the “increase of current (electron diffusion rate)” value on cytochrome c [3] (cytochrome c:SS-31=1:2, TBE buffer) is on record as approximately 200%. Further, the “O2 consumption in state 3 respiration” value in test [4] (10 μM or 100 μM peptide, complex I or complex II substrates or TMPD/ascorbate, 400 μM ADP) is given as “increased O2 consumption in state 3 respiration”. The “electron flux measured by O2 consumption” value in test [4] (100 μM peptide, 0.5 mM succinate, 400 μM ADP) is listed as “promote electron flux”. In addition, the “electron transfer to oxygen (rates of respiration)” value in test [4] (state 2, state 3 and state 4, different concentrations of SS-31) is reported as “promoted electron transfer to oxygen without uncoupling mitochondria”. Further, the “rate of ATP synthesis” value with isolated mitochondria (1 min after addition of 400 mM ADP, HPLC) was “dose-dependently increased the rate of ATP synthesis”. The ATP synthesis entry in the test with isolated mitochondria (assayed by HPLC (Example 18)) was “dose-dependently increased ATP synthesis”. Besides, the “rate of ATP production” value in the test with isolated mitochondria (mitochondria energized with low concentrations of succinate) is “significant increase in the rate of ATP production”. The HRP activity result in test [5] is reported as “no effect”.
